Like-named read-outs stand apart in the source and are kept apart here.
What was measured:
[1] = molecular target: T1, E. coli CsgA (Escherichia coli, UniProt P28307); assay: In vitro ThioflavinT assay of CsgA aggregation (CsgA ThT Assay); format: biochemical; settings: for remaining activity at 25 µM: compound 25 μM
T1 construct: made in house; host or cells: E. coli NEB 3016 slyD::kan, pET11d
How it was run: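 Purified C-terminal His-tagged CsgA, monomerised by desalting and 30-kDa filtration, at 2-20 μM with 20-40 μM ThT in 50 mM potassium phosphate pH 7.3, 1% DMSO, compounds 3.125-200 uM; room temperature, fluorescence (ex 438/em 495 nm) read every 15 min. Background-subtracted signal expressed as percent inhibition versus vehicle at 6-6.5 or 8-9 h, or as percent control AUC.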

[2] = test system: CsgA gene expression (csgBAC promoter-GFP reporter) in E. coli UTI89; assay: In vitro live cell fluorescent reporter assay of CsgA transcription (Reporter Assay); format: cell-based; settings: Escherichia coli
How it was run: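 Compounds at 0.14–100 μM (1% DMSO final) incubated 20 h at 27 °C in YESCA broth with UTI89 carrying a single-copy GFP reporter under the csgBAC intergenic promoter region, inoculum OD600 0.003. Fluorescence normalized to vehicle wells gave IC50 and 50%-of-vehicle concentration; OD600 reduction >10% flagged growth impact.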

[3] = read-out: CsgA ThT Assay (10 μM CsgA) % Control AUC at 1005 minutes, 25 μM (activity range), CsgA 10 μM, black plates, 1005 minutes, class symbol
[4] = read-out: CsgA ThT Assay (10 μM CsgA) % Control AUC at 1005 minutes, 25 μM, mean AUC as % of DMSO control, CsgA 10 μM, black plates, 1005 minutes
[5] = read-out: CsgA ThT Assay (10 μM CsgA) % Control AUC at 1005 minutes, 100 μM (activity range), CsgA 10 μM, black plates, compound 100 μM, 1005 minutes, class symbol
[6] = read-out: CsgA ThT Assay (10 μM CsgA) % Control AUC at 1005 minutes, 100 μM, mean AUC as % of DMSO control, CsgA 10 μM, black plates, compound 100 μM, 1005 minutes
[7] = read-out: Reporter Assay Abs IC50 (activity range), median Abs IC50 in the CsgA reporter assay, class symbol
[8] = read-out: Reporter Assay Abs IC50 (μM), median Abs IC50 in the CsgA reporter assay, N/A = maximum expression reduction is <50% of control
[9] = read-out: CsgA ThT Assay (2 μM CsgA) % Control Bmax 25 μM, activity range, class symbol, CsgA 2 μM, white plates
[10] = read-out: CsgA ThT Assay (2 μM CsgA) % Control Bmax 25 μM, mean Bmax as percentage of DMSO control, CsgA 2 μM, white plates
[11] = read-out: CsgA ThT Assay (2 μM CsgA) % Control Bmax 100 μM, activity range, class symbol, CsgA 2 μM, white plates, compound 100 μM
[12] = read-out: CsgA ThT Assay (2 μM CsgA) % Control Bmax 100 μM, mean Bmax as percentage of DMSO control, CsgA 2 μM, white plates, compound 100 μM
[13] = read-out: Reporter Assay Abs IC50, activity range, class symbol

T1 sequence (P28307 23-151): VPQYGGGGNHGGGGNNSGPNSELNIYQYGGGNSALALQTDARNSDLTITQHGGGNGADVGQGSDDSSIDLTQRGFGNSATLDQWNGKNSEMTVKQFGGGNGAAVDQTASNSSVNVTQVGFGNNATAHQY

| SMILES | remaining activity at 25 µM [1, 3] [%] | remaining activity at 25 µM [1, 4] [%] | remaining activity at 100 µM [1, 5] [%] | remaining activity at 100 µM [1, 6] [%] | IC50 [2, 7] [µM] | IC50 [2, 8] [µM] | remaining activity at 25 µM [1, 9] [%] | remaining activity at 25 µM [1, 10] [%] | remaining activity at 100 µM [1, 11] [%] | remaining activity at 100 µM [1, 12] [%] | IC50 [2, 13] [µM] | CsgA ThT Assay (10 μM CsgA) % Control AUC at 1005 minutes, 100 μM ([1]; mean AUC as % of DMSO control, CsgA 10 μM, black plates, compound 100 μM, 1005 minutes) [%] |
| --- | --- | --- | --- | --- | --- | --- | --- | --- | --- | --- | --- | --- |
| CCCCCN1CC(C(=O)O)n2c(c(-c3cccc(C(F)(F)F)c3)c(Cc3cccc4ccccc34)c(N)c2=O)S1(=O)=O (stereo not shown) [Compound 094, 7-amino-8-(naphthalen-1-ylmethyl)-6-oxo-2-pentyl-9-(3-(trifluoromethyl)phenyl)-3,4-dihydro-2H,6H-pyrido[1,2-e][1,2,5]thiadiazine-4-carboxylic acid 1,1-dioxide] | 31 to 60 | 51 | 11 to 31 | 30 | 1.3 to 4.5 | 1.9 | – | – | – | – | – | – |
| CC(C)(C)c1ccc(CN2CC(C(=O)O)n3c2c(-c2cccc(C(F)(F)F)c2)c(Cc2cccc4ccccc24)c(Cl)c3=O)cc1 (stereo not shown) [Compound 208, 1-(4-(tert-butyl)benzyl)-6-chloro-7-(naphthalen-1-ylmethyl)-5-oxo-8-(3-(trifluoromethyl)phenyl)-1,2,3,5-tetrahydroimidazo[1,2-a]pyridine-3-carboxylic acid] | – | – | – | – | – | 1 | 31 to 60 | 46 | 11 to 31 | 25 | < 1.3 | – |
| O=C(O)C1CN(Cc2ccccc2)c2c(-c3cccc(C(F)(F)F)c3)c(Cc3cccc4ncccc34)c(Cl)c(=O)n21 (stereo not shown) [Compound 211, 1-benzyl-6-chloro-5-oxo-7-(quinolin-5-ylmethyl)-8-(3-(trifluoromethyl)phenyl)-1,2,3,5-tetrahydroimidazo[1,2-a]pyridine-3-carboxylic acid] | – | – | – | – | – | 20.6 | > 60 | 85 | > 60 | 65 | > 10 | – |
| CCc1c(Cc2cccc3ccccc23)c(-c2cccc(C(F)(F)F)c2)c2n(c1=O)C(C(=O)O)CN(CCCCCO)S2(=O)=O (stereo not shown) [Compound 114, 7-ethyl-2-(5-hydroxypentyl)-8-(naphthalen-1-ylmethyl)-6-oxo-9-(3-(trifluoromethyl)phenyl)-3,4-dihydro-2H,6H-pyrido[1,2-e][1,2,5]thiadiazine-4-carboxylic acid 1,1-dioxide] | 31 to 60 | 37 | 11 to 31 | 21 | 4.6 to 10 | 7 | – | – | – | – | – | – |
| CCCCN1CC(C(=O)O)n2c(c(-c3cccc(C(F)(F)F)c3)c(Cc3cccc4ccccc34)cc2=O)S1(=O)=O (single isomer, unassigned) [Compound 021a, 2-butyl-8-(naphthalen-1-ylmethyl)-6-oxo-9-(3-(trifluoromethyl)phenyl)-3,4-dihydro-2H,6H-pyrido[1,2-e][1,2,5]thiadiazine-4-carboxylic acid 1,1-dioxide] | 31 to 60 | 36 | > 60 | – | 1.3 to 4.5 | 3.3 | – | – | – | – | – | 73 |
| O=C(c1nc(=O)n2c(c1-c1cccc(C(F)(F)F)c1)SCC2C(=O)O)c1cccc2ccccc12 (stereo not shown) [Compound 055, 7-(1-naphthoyl)-5-oxo-8-(3-(trifluoromethyl)phenyl)-2,3-dihydro-5H-thiazolo[3,2-c]pyrimidine-3-carboxylic acid] | > 60 | 73 | 11 to 31 | 17 | > 10 | 11 | – | – | – | – | – | – |
| CCCc1sc2c(-c3cccc(C(F)(F)F)c3)c(Cc3cccc4ccccc34)cc(=O)n2c1C(=O)O [Compound 061, 7-(naphthalen-1-ylmethyl)-5-oxo-2-propyl-8-(3-(trifluoromethyl)phenyl)-5H-thiazolo[3,2-a]pyridine-3-carboxylic acid] | 31 to 60 | 44 | 31 to 60 | 45 | 1.3 to 4.5 | 2.1 | – | – | – | – | – | – |
| O=C(O)C1CN(Cc2ccccc2)c2c(-c3cccc(C(F)(F)F)c3)c(CN3CCCc4ccccc43)c(Cl)c(=O)n21 (stereo not shown) [Compound 217, 1-benzyl-6-chloro-7-((3,4-dihydroquinolin-1 (2H)-yl)methyl)-5-oxo-8-(3-(trifluoromethyl)phenyl)-1,2,3,5-tetrahydroimidazo[1,2-a]pyridine-3-carboxylic acid] | – | – | – | – | – | 1.1 | > 60 | 65 | – | – | < 1.3 | – |
| CCCN1CC(C(=O)O)n2c(c(-c3cccc(C(F)(F)F)c3)c(Cc3cccc4ccccc34)c(CC)c2=O)S1(=O)=O (stereo not shown) [Compound 117, 7-ethyl-8-(naphthalen-1-ylmethyl)-6-oxo-2-propyl-9-(3-(trifluoromethyl)phenyl)-3,4-dihydro-2H,6H-pyrido[1,2-e][1,2,5]thiadiazine-4-carboxylic acid 1,1-dioxide] | 31 to 60 | 32 | 11 to 31 | 22 | 4.6 to 10 | 5.9 | – | – | – | – | – | – |
| CN1CC(C(=O)O)n2c(c(-c3cccc(C(F)(F)F)c3)c(Cc3cccc4ccccc34)c(Br)c2=O)S1(=O)=O (stereo not shown) [Compound 058, 7-bromo-2-methyl-8-(naphthalen-1-ylmethyl)-6-oxo-9-(3-(trifluoromethyl)phenyl)-3,4-dihydro-2H,6H-pyrido[1,2-e][1,2,5]thiadiazine-4-carboxylic acid 1,1-dioxide] | 31 to 60 | 47 | 11 to 31 | 22 | > 10 | 19.8 | – | – | – | – | – | – |
| C/C=C/c1c(Cc2cccc3ccccc23)c(-c2cccc(C(F)(F)F)c2)c2n(c1=O)C(C(=O)O)CN(C)S2(=O)=O (stereo not shown) [Compound 088, (E)-2-methyl-8-(naphthalen-1-ylmethyl)-6-oxo-7-(prop-1-en-1-yl)-9-(3-(trifluoromethyl)phenyl)-3,4-dihydro-2H,6H-pyrido[1,2-e][1,2,5]thiadiazine-4-carboxylic acid 1,1-dioxide] | 31 to 60 | 36 | 11 to 31 | 26 | 4.6 to 10 | 5.2 | – | – | – | – | – | – |
| O=C(O)c1c(Cc2cccc3ccccc23)c(-c2cccc(C(F)(F)F)c2)c2n(c1=O)C(C(=O)O)CN2Cc1ccccc1 (stereo not shown) [Compound 209, 1-benzyl-7-(naphthalen-1-ylmethyl)-5-oxo-8-(3-(trifluoromethyl)phenyl)-1,2,3,5-tetrahydroimidazo[1,2-a]pyridine-3,6-dicarboxylic acid] | – | – | – | – | – | 6.6 | > 60 | 81 | > 60 | 64 | 4.6 to 10 | – |
| Nc1c(Cc2cccc3ccccc23)c(-c2cccc(C(F)(F)F)c2)c2n(c1=O)C(C(=O)O)CO2 (stereo not shown) [Compound 069, 6-amino-7-(naphthalen-1-ylmethyl)-5-oxo-8-(3-(trifluoromethyl)phenyl)-2,3-dihydro-5H-oxazolo[3,2-a]pyridine-3-carboxylic acid] | 31 to 60 | 58 | 11 to 31 | 14 | 4.6 to 10 | 5.7 | – | – | – | – | – | – |
| NC(=O)c1c(Cc2cccc3ccccc23)c(-c2cccc(C(F)(F)F)c2)c2n(c1=O)C(C(=O)O)CN2Cc1ccccc1 (stereo not shown) [Compound 203, 1-benzyl-6-carbamoyl-7-(naphthalen-1-ylmethyl)-5-oxo-8-(3-(trifluoromethyl)phenyl)-1,2,3,5-tetrahydroimidazo[1,2-a]pyridine-3-carboxylic acid] | – | – | – | – | – | 1.1 | > 60 | 62 | > 60 | 64 | < 1.3 | – |
